Reference: patent US11826355B1, “Aspirin-mimetic antioxidants for treatment of age-related cataract” (priority 2022, dated 2023)
Several values for one entry are separate records, joined by “and”; a condition that tells them apart may be missing. Identical values can stand only once.

Key:
[1] = test system: Wistar rat cataract model induced by sodium selenite; assay: Lens opacity score (slit lamp) in sodium selenite-induced cataract rat model; format: in vivo; parameters: lens opacity score, Mean / lens opacity score / lens opacity score, raw data per eye (OD/OS, rats 1-6): scale not given here
Experimental: A new batch of eye drops solutions was prepared every week. Placebo was a solution that contained the same excipients but without the drug compound. The eye drops solutions were prepared as follows:
3. An illustrative procedure: To a 250 mL volume flask were added 25 mg each of the excipients, sodium borate, boric acid, sodium chloride, and potassium chloride, an aspirin mimetic drug compound to be tested (e.g., DPL-004, 9.0 mg), and about 200 ml of sterilized water to form a mixture. The resultant mixture was shaken well to dissolve solids; and more sterilized water was added to bring the volume of solution to 250 mL, which was shaken well and then distributed into small portions. Each portion was labeled with a concentration of 3.6 mg/100 mL and the preparation date and was stored in a refrigerator for future use.
4. Eye drops solutions comprising DPL-004 at a concentration of 36 mg/100 mL and 12 mg/100 mL were prepared similarly according to the above procedure by using 90 mg and 30 mg of DPL-004, respectively, while maintaining the same amounts of excipients as shown above.
(§1) At the age of 11-12 days after birth, all suckling rats underwent a single intraperitoneal injection of sodium selenite (30 μmol/kg, i.e., 0.1 ml/10 g) for model-building. Sodium selenite solution was configured with normal saline at a concentration of 3 mM.
(§2) At the age of 19 days after birth (D-1) of the suckling rats, 30 lens opacities were selected for a cloudy rating at Class 4 or 5; Wister suckling rats were randomly divided into 5 groups (G1-G5 groups, 6 in each group); and a cage of suckling rats as G6 was randomly selected after the animals opened their eyes (14-16 days of age).
(§3) The subject suckling rats of groups G1 to G5 were treated at the age of 20 days after birth (D1), and the specific dosing information is shown in Table 1. Treatment in the G6 group was conducted after the animals opened their eyes (14-16 days old, D-6-D-4), and the specific dosing information is shown in Table 1.
At D-1, in the fourth week of treatment, the slit lamp was used at the end of administration to observe the turbidity of the lens and grade it, and the grading and scoring criteria are shown in the following Table 2.

[2] = Body weight of rats in the cataract model study; format: in vivo, rat; conditions: 10 μl 3 times/day
Experimental: as §1, §2, §3

[3] = General clinical observations during 60-day eye drop administration; format: in vivo, rat; conditions: eye drops 3 times/day, 60-day administration phase, all concentrations
From the text: as §2

[4] = G3, 36 mg/0.1 L D1-D31 then 1.8 mg/0.1 L D32-D60, 10 μl 3 times/day, pH 6.5, day 60
[5] = G3, 36 mg/0.1 L, 10 μl 3 times/day, pH 6.5, day 28
[6] = G3, 36 mg/0.1 L, 10 μl 3 times/day, pH 6.5, day -1 (before administration)
[7] = G4, 12 mg/0.1 L, 10 μl 3 times/day, pH 6.5, day 28
[8] = G4, 12 mg/0.1 L, 10 μl 3 times/day, pH 6.5, day 60
[9] = G4, 12 mg/0.1 L, 10 μl 3 times/day, pH 6.5, day -1 (before administration)
[10] = G5, 3.6 mg/0.1 L, 10 μl 3 times/day, pH 6.5, day 28
[11] = G5, 3.6 mg/0.1 L, 10 μl 3 times/day, pH 6.5, day 60
[12] = G5, 3.6 mg/0.1 L, 10 μl 3 times/day, pH 6.5, day -1 (before administration)
[13] = G6 preventive dosing from D-6, 3.6 mg/0.1 L, 10 μl 3 times/day, pH 7.4, day 22
[14] = G6 preventive dosing from D-6, 3.6 mg/0.1 L, 10 μl 3 times/day, pH 7.4, day -1
[15] = G6 preventive dosing from D-6, 3.6 mg/0.1 L, 10 μl 3 times/day, pH 7.4, day -6
[16] = G6 preventive dosing from D-6, 3.6 mg/0.1 L, 10 μl 3 times/day, pH 7.4 to D31 then pH 6.0 D32-D60, day 60

O=C(Sc1ccccc1C(=O)S)c1cccnc1 [DPL-004, 2-[(pyridine-3-carbonyl)sulfanyl]benzene-1-carbothioic S-acid]
lens opacity score, Mean [1, 4]: 2.75 | lens opacity score, raw data per eye (OD/OS, rats 1-6) [1, 4]: 2 and 3 and 4 | lens opacity score, Mean [1, 5]: 3.58 | lens opacity score, raw data per eye (OD/OS, rats 1-6) [1, 5]: 3 and 4 | lens opacity score, Mean [1, 6]: 4.00 | lens opacity score, raw data per eye (OD/OS, rats 1-6) [1, 6]: 4 | lens opacity score, Mean [1, 7]: 3.50 | lens opacity score, raw data per eye (OD/OS, rats 1-6) [1, 7]: 3 and 4 | lens opacity score, Mean [1, 8]: 2.58 | lens opacity score, raw data per eye (OD/OS, rats 1-6) [1, 8]: 2 and 3 and 4 | lens opacity score, Mean [1, 9]: 4.00 | lens opacity score, raw data per eye (OD/OS, rats 1-6) [1, 9]: 4 | Efficacy (reduction of lens opacity score vs placebo G2) ([1]; G4, 12 mg/0.1 L, pH 6.5, D28): 4.63% | Efficacy (reduction of lens opacity score vs placebo G2) ([1]; G4, 12 mg/0.1 L, pH 6.5, D60): 14.0% | lens opacity score, Mean [1, 10]: 3.42 | lens opacity score, raw data per eye (OD/OS, rats 1-6) [1, 10]: 4 and 3 | lens opacity score, Mean [1, 11]: 2.58 | lens opacity score, raw data per eye (OD/OS, rats 1-6) [1, 11]: 3 and 4 and 2 | lens opacity score, Mean [1, 12]: 4.00 | lens opacity score, raw data per eye (OD/OS, rats 1-6) [1, 12]: 4 | Efficacy (reduction of lens opacity score vs placebo G2) ([1]; G5, 3.6 mg/0.1 L, pH 6.5, D28): 6.81% | Efficacy (reduction of lens opacity score vs placebo G2) ([1]; G5, 3.6 mg/0.1 L, pH 6.5, D60): 14.0% | lens opacity score ([1]; G6 early intervention, 3.6 mg/0.1 L, pH 7.4, in the period of 28 days): 4.0 | lens opacity score, Mean [1, 13]: 4.00 | lens opacity score, raw data per eye (OD/OS, rats 1-6) [1, 13]: 4 | lens opacity score, Mean [1, 14]: 4.00 | lens opacity score, raw data per eye (OD/OS, rats 1-6) [1, 14]: 4 | lens opacity score, Mean [1, 15]: 4.00 | lens opacity score, raw data per eye (OD/OS, rats 1-6) [1, 15]: 4 | lens opacity score, Mean [1, 16]: 3.08 | lens opacity score, raw data per eye (OD/OS, rats 1-6) [1, 16]: 4 and 3 and 2 | effect on cataract in the rat model (in words) ([1]; eye drops, rat model): gradually reversing cataracts | Body Weight, Mean ([2]; G3, 36 mg/0.1 L (D32-D60 1.8 mg/0.1 L), pH 6.5, day 4): 58.22 g | Body Weight, Mean ([2]; G3, 36 mg/0.1 L (D32-D60 1.8 mg/0.1 L), pH 6.5, day 11): 97.48 g | Body Weight, Mean ([2]; G3, 36 mg/0.1 L (D32-D60 1.8 mg/0.1 L), pH 6.5, day 18): 130.98 g | Body Weight, Mean ([2]; G3, 36 mg/0.1 L (D32-D60 1.8 mg/0.1 L), pH 6.5, day 25): 161.68 g | Body Weight, Mean ([2]; G3, 36 mg/0.1 L (D32-D60 1.8 mg/0.1 L), pH 6.5, day 32): 184.12 g | Body Weight, Mean ([2]; G3, 36 mg/0.1 L (D32-D60 1.8 mg/0.1 L), pH 6.5, day 39): 210.05 g | Body Weight, Mean ([2]; G3, 36 mg/0.1 L (D32-D60 1.8 mg/0.1 L), pH 6.5, day 46): 232.55 g | Body Weight, Mean ([2]; G3, 36 mg/0.1 L (D32-D60 1.8 mg/0.1 L), pH 6.5, day 53): 256.08 g | Body Weight, Mean ([2]; G3, 36 mg/0.1 L (D32-D60 1.8 mg/0.1 L), pH 6.5, day 60): 273.13 g | Body Weight, Mean ([2]; G3, 36 mg/0.1 L (D32-D60 1.8 mg/0.1 L), pH 6.5, day -1 (before administration)): 45.68 g | Body Weight, Mean ([2]; G4, 12 mg/0.1 L, pH 6.5, day 4): 59.37 g | Body Weight, Mean ([2]; G4, 12 mg/0.1 L, pH 6.5, day 11): 98.03 g | Body Weight, Mean ([2]; G4, 12 mg/0.1 L, pH 6.5, day 18): 138.57 g | Body Weight, Mean ([2]; G4, 12 mg/0.1 L, pH 6.5, day 25): 166.05 g | Body Weight, Mean ([2]; G4, 12 mg/0.1 L, pH 6.5, day 32): 188.40 g | Body Weight, Mean ([2]; G4, 12 mg/0.1 L, pH 6.5, day 39): 209.05 g | Body Weight, Mean ([2]; G4, 12 mg/0.1 L, pH 6.5, day 46): 232.02 g | Body Weight, Mean ([2]; G4, 12 mg/0.1 L, pH 6.5, day 53): 240.18 g | Body Weight, Mean ([2]; G4, 12 mg/0.1 L, pH 6.5, day 60): 269.85 g | Body Weight, Mean ([2]; G4, 12 mg/0.1 L, pH 6.5, day -1 (before administration)): 46.10 g | Body Weight, Mean ([2]; G5, 3.6 mg/0.1 L, pH 6.5, day 4): 60.25 g | Body Weight, Mean ([2]; G5, 3.6 mg/0.1 L, pH 6.5, day 11): 101.48 g | Body Weight, Mean ([2]; G5, 3.6 mg/0.1 L, pH 6.5, day 18): 149.00 g | Body Weight, Mean ([2]; G5, 3.6 mg/0.1 L, pH 6.5, day 25): 188.37 g | Body Weight, Mean ([2]; G5, 3.6 mg/0.1 L, pH 6.5, day 32): 230.95 g | Body Weight, Mean ([2]; G5, 3.6 mg/0.1 L, pH 6.5, day 39): 257.97 g | Body Weight, Mean ([2]; G5, 3.6 mg/0.1 L, pH 6.5, day 46): 304.65 g | Body Weight, Mean ([2]; G5, 3.6 mg/0.1 L, pH 6.5, day 53): 323.03 g | Body Weight, Mean ([2]; G5, 3.6 mg/0.1 L, pH 6.5, day 60): 343.05 g | Body Weight, Mean ([2]; G5, 3.6 mg/0.1 L, pH 6.5, day -1 (before administration)): 45.40 g | Body Weight, Mean ([2]; G6 preventive dosing from D-6, 3.6 mg/0.1 L, pH 7.4 (D32-D60 pH 6.0), day 4): 62.15 g | Body Weight, Mean ([2]; G6 preventive dosing from D-6, 3.6 mg/0.1 L, pH 7.4 (D32-D60 pH 6.0), day 11): 106.70 g | Body Weight, Mean ([2]; G6 preventive dosing from D-6, 3.6 mg/0.1 L, pH 7.4 (D32-D60 pH 6.0), day 18): 140.92 g | Body Weight, Mean ([2]; G6 preventive dosing from D-6, 3.6 mg/0.1 L, pH 7.4 (D32-D60 pH 6.0), day 25): 171.78 g | Body Weight, Mean ([2]; G6 preventive dosing from D-6, 3.6 mg/0.1 L, pH 7.4 (D32-D60 pH 6.0), day 32): 211.43 g | Body Weight, Mean ([2]; G6 preventive dosing from D-6, 3.6 mg/0.1 L, pH 7.4 (D32-D60 pH 6.0), day 39): 251.03 g | Body Weight, Mean ([2]; G6 preventive dosing from D-6, 3.6 mg/0.1 L, pH 7.4 (D32-D60 pH 6.0), day 46): 283.27 g | Body Weight, Mean ([2]; G6 preventive dosing from D-6, 3.6 mg/0.1 L, pH 7.4 (D32-D60 pH 6.0), day 53): 303.65 g | Body Weight, Mean ([2]; G6 preventive dosing from D-6, 3.6 mg/0.1 L, pH 7.4 (D32-D60 pH 6.0), day 60): 330.03 g | Body Weight, Mean ([2]; G6 preventive dosing from D-6, 3.6 mg/0.1 L, pH 7.4 (D32-D60 pH 6.0), day -1): 45.27 g | Body Weight, Mean ([2]; G6 preventive dosing from D-6, 3.6 mg/0.1 L, pH 7.4 (D32-D60 pH 6.0), day -6): 35.83 g | abnormal symptoms (activity status, body weight, skin hair, secretion morphology and color) [3]: no abnormal symptoms
